Experiments:
[1] = literature (Schmidtchen et al., 2002); cited from earlier work
Candida albicans = assay: Broth dilution assay (Example 2); format: cell-based; conditions: Ca(OH)2 0.85 mg/mL alone, or combined with ½ MIC of D-CTL
Protocol: (§1) Enterococcus faecalis (CCM 2541) was obtained from the Czechoslovac Collection of Microorganisms (Czech Republic) Bacteria were cultured in Anaerobe Basal Broth (Oxoid, France) at 37° C. in anaerobic conditions. Candida albicans (ATCC© 10231™) was cultured in Sabouraud medium (BD, France) supplemented with tetracycline (10 μg/mL) and cefotaxime (10 μg/mL).
(§2) An overnight culture of each pathogen was diluted (OD600 nm=0.001) and incubated at 37° C. in 96-plates in the presence of different concentrations of antimicrobial agents. When testing Ca(OH)2, the pH of the solution was measured with by pH meter. (CyberScan pH 510©, Eutech, France). After 24 h incubation, the OD620 nm was evaluated with a spectrophotometer (Multikan EX, ThermoScientific, France). Each assay was done at least in triplicate. For each set of assay, the standard deviation was determined.

Fusobacterium nucleatum = assay: Broth dilution assay (Example 2); format: cell-based
Protocol: as §1, §2

Prevotella intermedia = assay: Broth dilution assay (Example 2); format: cell-based; conditions: Ca(OH)2 0.85 mg/mL alone, or combined with ½ MIC of D-CTL
Protocol: as §1, §2

Enterococcus faecalis = format: cell-based; conditions: saturated solution of Ca(OH)2 (1.7 mg/mL, pH 9)
Protocol: as §1, §2

Parvimonas micra = assay: Broth dilution assay (Example 2); format: cell-based; conditions: Ca(OH)2 0.85 mg/mL alone, or combined with ½ MIC of D-CTL
HGF-1 cells = assay: MTT cytotoxicity assay on HGF-1 cells (Example 2); format: cell-based, human
Protocol: The mammalian cell line HGF-1 (ATCC® CRL-2014™) was commercially obtained by ATCC and cultured at 37° C. and 5% CO2 in Dulbecco's Modified Eagle's Medium (Thermo Fisher Scientific, France) supplemented with 10% (v/v) bovine calf serum (Dutscher, France) and 1% (v/v) penicillin-streptomycin (Thermo Fisher Scientific, France).
The cytotoxicity of the antimicrobial agents was examined by MTT [3(4,5-dimethylthiazol-2-yl)-2,5 diphenyl tetrazolium bromide] assays (Scientific Life—France) against HGF-1 cells. Cells were incubated for 24 h in a 96-wells plate before being treated with various concentrations of Ca(OH)2 alone or supplemented with the peptide. As a control, cells were plated in each 96-wells without being treated. After 24 h, 48 h and 72 h incubation, cells were carefully washed with PBS and treated with MTT at a final concentration of 0.25 mg/mL. HGF-1 cells were then incubated for 2 h at 37° C. before being lysed with isopropanol/HCL (48:2, v/v). Cell viability was assessed by reading the OD540 nm with a Multiskan EX microplate spectrophotometer (Thermo Fisher Scientific, France). The OD540 nm of each well was then compared to the […] of the control. For each set of experiments, standard deviations were determined.

Row | Molecule | degradation by the virulence factors of E. faecalis [1] | inhibition of C. albicans growth (Candida albicans) | inhibition of F. nucleatum growth (Fusobacterium nucleatum; Ca(OH)2 0.85 mg/mL alone, or combined with ½ MIC of D-CTL) | inhibition of the growth of F. nucleatum (Fusobacterium nucleatum; saturated solution of Ca(OH)2 (1.7 mg/mL, pH 9)) | inhibition of P. intermedia growth (Prevotella intermedia) | inhibition rate of E. faecalis growth (Enterococcus faecalis) | inhibition of P. micra growth (Parvimonas micra) | toxicity on HGF-1 (HGF-1 cells; Ca(OH)2 0.425 g/L, after three days incubation) | toxicity on HGF-1 (HGF-1 cells; Ca(OH)2 0.85 g/L, after three days incubation) | toxicity on HGF-1 (HGF-1 cells; saturated solution of Ca(OH)2 (1.7 mg/mL), after 24 h) | toxicity on HGF-1 (HGF-1 cells; saturated solution of Ca(OH)2 (1.7 mg/mL), after 72 h incubation) | toxicity on HGF-1 (HGF-1 cells; saturated solution of Ca(OH)2 (1.7 mg/mL), second of three values, time not clearly printed)
1 | LL-37 | completely degraded |  |  |  |  |  |  |  |  |  |  | 
2 | [Ca+2].[OH-].[OH-] [Ca(OH)2] |  | 87%±2% | 30%±10% | 100% (±1%) | 77%±6% | 58% (±5%) | 15%±6% | below 4% (±7%) | below 4% (±7%) | 20% (±7%) | 50% (±6%) | 14% (±11%)
